# Test results taken from US20160106439A1, “PNEUMATIC TOURNIQUET” (BIONUMERIK PHARMACEUTICALS, INC., priority 2013, published 2016).
# Several values for one entry are separate records, joined by “and”; a condition that tells them apart may be missing. Identical values can stand only once. Entries after “also recorded” stand apart in the source; their conditions may differ. Like-named read-outs stand apart in the source and are kept apart here.
# Key:
# ROS1 kinase = ROS1 kinase (Homo sapiens, UniProt P08922); settings: for effect on crizotinib inhibition of ROS1 kinase activity: ATP and polyGT
# Description: The substrate that was phosphorylated by the kinase, polyglutamate-tyrosine (PolyGT), was purchased from Sigma (P0275, lot 120M5007V).
# All other reagents were purchased from Sigma Aldrich. A Tecan Ultra microplate reader with XFluor4 software (Tecan, V4.51) and RdrOle software (Tecan, V4.50) were used in this study.
# ROS1 kinase phosphorylated the polyGT substrate using the ATP cofactor and produced ADP. […] The reactions, in microtubes, were incubated for 60 minutes at 25° C. in a water bath. Following this 60 minute incubation, 10 μL aliquots were transferred to microplates and the kinase activity was evaluated using the Promega ADP-glo system that monitored, in an endpoint assay, ADP produced when ROS1 kinase phosphorylated the PolyGT substrate.
# It should be noted that numerous controls were tested and included the assay components indicated in the columns of Table 10 below (where + indicates the component was included and an empty space indicates it was not included).
# The Kinase Assays, as described in Section II above, were run in triplicate or quadruplicate in microplates. Following these assays, the ADP-glo detection system (Promega) was used to determine how much ADP had been produced.
# For 10 μL volume assays, to each microplate well containing 10 μL of kinase reaction was added ADP-glo reagent (10 μL), the microplates were spun in a table top centrifuge (1000 rpm (123×g) for 1 minute) to ensure that no reagent remained on the walls of the individual wells, and then agitated for 1 minute to ensure optimal mixing. The microplates were incubated at 25° C. on a heat block for 40 minutes. Kinase detection reagent (20 μL) was then added and, as above, centrifugation and agitation was repeated; with the microplates being allowed to incubate at 25° C.±1° C. on a heat block for 40 minutes. Following the incubation of the kinase detection reagent, the microplates were read on a Tecan Ultra microplate reader. The Tecan Ultra contained a built-in plate definition file for the whole area 96-well, white Corning microplates; however a microplate definition file for the half area 96-well Corning plates was created using the RdrOle component of the Tecan Ultra software.
# Therefore, each mole of PolyGT polymer of 20,000 g/mole would contain approximately 28 moles of the glu-glu-glu-glu-tyr “subpolymer.”
# Typically, a 10 μL assay volume would contain 2 μg of the polyGT substrate. Assuming the lower polymer mass of 20,000 g/mol mass, this translates to approximately 10 μM polyGT per assay and […] glu-glu-glu-glu-tyr “subpolymer” per assay.
# Data from ROS1 kinase assays run on the Tecan Ultra microplate spectrophotometer were collected in Microsoft Excel. Error calculations and graphical representations were performed in Microsoft Office Excel (Microsoft Corporation, Redmond, Wash., USA). Determination of IC25, IC50 and IC75 values were accomplished using Origin Lab software (OriginLab Corporation, Northampton, Mass., USA).
# [1] = molecular target: T1, human glutaredoxin (Grx1) (Homo sapiens, UniProt P35754); assay: Mass Spectroscopy of Grx-Tavocept reaction; format: binding; settings: 40 mM Tavocept, 4° C. overnight
# T1 construct: 6xHis (TEV-cleavable) (N, cleaved yes); made in house; host or cells: E. coli BL21 (RIPL)
# [2] = test system: human breast, ovarian and lymphoma cancer cell lines; assay: Interference with paclitaxel induced apoptosis (PARP cleavage, Bcl-2 phosphorylation, DNA laddering); format: cell-based
# Text: (§1) Tavocept mediates the non-enzymatic xenobiotic modification of sulfur-containing amino acid residues (e.g., cysteine) on proteins. As an engineered, non-naturally occurring agent (i.e., xenobiotic), Tavocept is autocatalytic and requires no protein cofactor to cause the xenobiotic modification of cysteine, but appears to be specific for cysteine residues located within a particular structural context (i.e., not all cysteines in a protein are so modified). Tavocept-mediated, xenobiotic modification represents a novel mechanism of action for a cancer treating agent and can be compared to a degree with post-translational modifications of cysteine residues in proteins (see, Table 3, below).
# FTase = molecular target: T2, FTase (Homo sapiens, UniProt P49354+P49356); assay: FTase-mediated farnesylation of Dansyl-GCVLS peptide; format: biochemical
# T2 construct: purchased Abcam
# human cancer cell lines = assay: Interference with paclitaxel- and platinum-induced cytotoxicity; format: cell-based
# Text: as §1
# [3] = cited from earlier work
# Human Grx = molecular target: T3, Human Grx (Homo sapiens, UniProt P35754); assay: MS and crystal structure of Grx with Tavocept-derived mesna adducts; format: binding
# T3 construct: 6xHis (TEV-cleavable) (N, cleaved yes); made in house; host or cells: E. coli BL21 (RIPL)
# T3 sequence (P35754 whole entry): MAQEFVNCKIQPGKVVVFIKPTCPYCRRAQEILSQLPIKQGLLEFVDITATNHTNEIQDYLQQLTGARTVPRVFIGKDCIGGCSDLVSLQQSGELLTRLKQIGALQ
# Chain of ROS1 kinase (P08922 1883-2347): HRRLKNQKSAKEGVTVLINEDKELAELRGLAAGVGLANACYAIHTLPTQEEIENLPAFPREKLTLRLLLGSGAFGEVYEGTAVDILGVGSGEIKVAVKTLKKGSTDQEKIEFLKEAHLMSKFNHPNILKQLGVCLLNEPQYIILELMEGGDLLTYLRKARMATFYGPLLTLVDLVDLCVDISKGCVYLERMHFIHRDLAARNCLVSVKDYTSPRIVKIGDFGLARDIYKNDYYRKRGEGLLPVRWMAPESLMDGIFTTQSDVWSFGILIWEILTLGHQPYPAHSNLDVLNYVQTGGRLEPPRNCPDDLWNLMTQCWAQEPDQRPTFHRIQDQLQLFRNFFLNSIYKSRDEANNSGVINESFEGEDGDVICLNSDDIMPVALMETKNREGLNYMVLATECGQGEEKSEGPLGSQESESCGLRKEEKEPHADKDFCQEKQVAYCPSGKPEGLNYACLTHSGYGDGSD
# T2 sequence (P49356 whole entry, one chain of several): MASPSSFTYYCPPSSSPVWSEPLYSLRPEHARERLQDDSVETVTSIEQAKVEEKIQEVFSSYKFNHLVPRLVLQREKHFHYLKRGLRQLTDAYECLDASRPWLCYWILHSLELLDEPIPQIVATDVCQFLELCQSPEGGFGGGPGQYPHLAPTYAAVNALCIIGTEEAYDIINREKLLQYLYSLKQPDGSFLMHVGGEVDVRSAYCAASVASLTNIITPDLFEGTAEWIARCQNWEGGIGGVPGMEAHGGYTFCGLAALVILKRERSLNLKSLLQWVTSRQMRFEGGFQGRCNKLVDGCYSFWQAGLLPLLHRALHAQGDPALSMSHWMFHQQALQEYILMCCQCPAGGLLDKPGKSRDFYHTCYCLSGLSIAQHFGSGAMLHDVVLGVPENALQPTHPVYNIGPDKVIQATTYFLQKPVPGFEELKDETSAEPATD
# T1 sequence (P35754 whole entry): as the sequence (P35754 whole entry) above
smiles,measurement,setting,value
"O=S(=O)([O-])CCSSCCS(=O)(=O)[O-].[Na+].[Na+] [Tavocept, disodium 2,2′-dithio-bis-ethane sulfonate]",loss of ROS1 kinase activity,"ROS1 kinase; 5 mM Tavocept incubated with ROS1 for 24 hours prior to ATP and polyGT, 100 μM ATP",15%
same,loss of ROS1 kinase activity,"ROS1 kinase; 10 mM Tavocept incubated with ROS1 for 3 hours prior to ATP and polyGT, 100 μM ATP",16%
same,loss of ROS1 kinase activity,"ROS1 kinase; 10 mM Tavocept incubated with ROS1 for 24 hours prior to ATP and polyGT, 100 μM ATP",31%
same,loss of ROS1 kinase activity,"ROS1 kinase; 20 mM Tavocept incubated with ROS1 for 3 hours prior to ATP and polyGT, 100 μM ATP",26%
same,loss of ROS1 kinase activity,"ROS1 kinase; 20 mM Tavocept incubated with ROS1 for 24 hours prior to ATP and polyGT, 100 μM ATP",48%
same,effect on ROS1 kinase activity,ROS1 kinase; Tavocept (2.5-20 mM) added simultaneously with ATP and polyGT,did not have a notable effect; also recorded: no discernible
same,effect on crizotinib inhibition of ROS1 kinase activity,ROS1 kinase; Tavocept (2.5 to 20 mM) incubated with ROS1 for 3 or 24 hours prior to crizotinib,additive manner
same,effect on crizotinib inhibition of ROS1 kinase activity,"ROS1 kinase; Tavocept (2.5 to 20 mM) incubated with ROS1 for 3 or 24 hours prior to crizotinib, listed as BNP7787",additive effect
same,effect on crizotinib inhibition of ROS1 kinase activity,"ROS1 kinase; Tavocept added simultaneously with crizotinib, 100 μM ATP",did not affect; also recorded: no discernible
same,Tavocept-derived mesna adducts per molecule of Grx,[1],one to two
same,interference with paclitaxel induced apoptosis,[2],does not interfere
same,effect on FTase activity,FTase,Inhibition
same,interference with paclitaxel- and platinum-induced cytotoxicity,human cancer cell lines,not to interfere
same,Tavocept in plasma,[3]; 41 g/m^2 Tavocept,~14 mM
same,concentrations achieved in the clinic,[3]; as high as,≤ 18000 µM
same,plasma levels pharmacologically achievable,[3]; doses of 18.4 g/m^2 and higher,≥ 8 mM
same,pharmacologically achievable concentrations,[3]; in vivo,6-10 mM
same,plasma concentrations achieved in clinical trials,[3]; in vivo,10000 µM
same,Cmax,"[3]; read-out: Cmax values in plasma, typical, doses as high as 41 g/m^2",10000 µM
same,Cmax,"[3]; read-out: Cmax values in plasma, dose of 18.4 g/m^2",≥ 10000 µM and 10000 µM
same,Cmax,"[3]; read-out: typical Cmax values, administered at 18 g/m^2",10000 µM
same,number of Tavocept-derived mesna adducts on Human Grx,Human Grx; Mass Spectrum,two
same,Grx cysteines with Tavocept-derived mesna adduct,Human Grx; atomic resolution map,Cys7 (Panel A) and Cys82
